Results from PMC3984001 (Neuropharmacology, 2014).
pEC50: −log10 of the molar value. Read-outs that look alike come from different tables or passages of the source. Blank lines part the entries; values can stand above or below the compound they belong to.

How the values were obtained:
Format in all cases: cell-based
human α2(T22I)β4-nAChR [1] = target: T1, human α2(T22I)β4-nAChR (Homo sapiens, UniProt P30926+Q15822, T22I); assay: Mecamylamine block of agonist-induced peak currents; conditions: ACH-2, read-out: Inhibition of ACh-induced peak current responses, 1000 μM mecamylamine; 316 μM ACh; α2(T22I):β4 1:1
T1 sequence (Q15822 27-529): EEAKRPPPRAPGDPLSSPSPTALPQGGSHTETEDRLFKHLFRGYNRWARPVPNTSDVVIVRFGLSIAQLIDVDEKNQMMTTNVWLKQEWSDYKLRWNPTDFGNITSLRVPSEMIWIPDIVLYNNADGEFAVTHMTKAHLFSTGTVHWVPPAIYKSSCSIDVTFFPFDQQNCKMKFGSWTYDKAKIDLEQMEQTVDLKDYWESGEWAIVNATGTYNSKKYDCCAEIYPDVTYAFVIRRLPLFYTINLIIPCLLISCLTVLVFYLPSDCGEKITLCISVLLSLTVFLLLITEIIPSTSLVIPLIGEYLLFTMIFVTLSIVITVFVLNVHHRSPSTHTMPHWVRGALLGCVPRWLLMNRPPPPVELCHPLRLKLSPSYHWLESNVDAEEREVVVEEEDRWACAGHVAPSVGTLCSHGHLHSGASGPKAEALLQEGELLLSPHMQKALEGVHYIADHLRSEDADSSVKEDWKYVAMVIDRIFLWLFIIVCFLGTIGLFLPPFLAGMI
T1 sequence (P30926 22-498): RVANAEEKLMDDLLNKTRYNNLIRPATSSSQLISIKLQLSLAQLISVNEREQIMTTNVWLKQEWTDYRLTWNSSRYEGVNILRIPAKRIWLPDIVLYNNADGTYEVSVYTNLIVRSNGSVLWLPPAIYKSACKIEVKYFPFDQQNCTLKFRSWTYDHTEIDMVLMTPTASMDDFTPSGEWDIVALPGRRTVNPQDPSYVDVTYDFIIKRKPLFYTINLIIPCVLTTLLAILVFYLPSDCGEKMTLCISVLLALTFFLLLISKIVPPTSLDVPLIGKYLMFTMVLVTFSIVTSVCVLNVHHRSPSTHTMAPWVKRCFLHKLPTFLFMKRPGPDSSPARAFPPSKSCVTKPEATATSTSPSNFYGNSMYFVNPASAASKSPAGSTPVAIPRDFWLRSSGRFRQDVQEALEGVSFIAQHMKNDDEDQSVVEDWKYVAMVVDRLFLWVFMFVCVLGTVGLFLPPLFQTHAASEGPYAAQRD

human α2β2-nAChR [2] = target: T2, human α2β2-nAChR (Homo sapiens, UniProt P17787+Q15822); assay: Mecamylamine block of agonist-induced Imax responses; conditions: 1000 μM mecamylamine; α2:β2 1:1, 10:1 or 1:10; data not shown
T2 sequence (Q15822 27-529): as the sequence (Q15822 27-529) above
T2 sequence (P17787 26-502): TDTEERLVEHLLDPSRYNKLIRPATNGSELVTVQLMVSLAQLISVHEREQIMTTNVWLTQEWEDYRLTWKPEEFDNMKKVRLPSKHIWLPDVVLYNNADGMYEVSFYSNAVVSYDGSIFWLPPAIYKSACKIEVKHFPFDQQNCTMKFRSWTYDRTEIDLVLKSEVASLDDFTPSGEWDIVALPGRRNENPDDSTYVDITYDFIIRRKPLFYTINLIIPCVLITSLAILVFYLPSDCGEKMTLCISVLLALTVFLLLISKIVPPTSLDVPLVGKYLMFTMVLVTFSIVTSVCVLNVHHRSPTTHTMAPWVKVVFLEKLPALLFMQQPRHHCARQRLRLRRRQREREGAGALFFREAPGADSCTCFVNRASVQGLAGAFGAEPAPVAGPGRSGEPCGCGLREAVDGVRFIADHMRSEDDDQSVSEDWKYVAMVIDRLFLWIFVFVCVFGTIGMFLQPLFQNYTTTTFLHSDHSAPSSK

human α2(T22I)β2-nAChR [3] = target: T3, human α2(T22I)β2-nAChR (Homo sapiens, UniProt P17787+Q15822, T22I); assay: as above; conditions: 1000 μM mecamylamine; α2(T22I):β2 1:1, 10:1 or 1:10; data not shown
T3 sequence (Q15822 27-529): as the sequence (Q15822 27-529) above
T3 sequence (P17787 26-502): as the sequence (P17787 26-502) above

human α2β2-nAChR [4] = target: T2, human α2β2-nAChR; conditions: for Peak current: hα2hβ2opt, 316 μM ACh or 100 μM nicotine; for Higher agonist sensitivity of 1:10 (HS) than 1:1 receptors: α2:β2 1:10 vs 1:1 cRNA; for Higher agonist sensitivity of 1:10 (HS) than 1:1 receptors / Higher agonist sensitivity of 1:10 (HS) than 10:1 (LS) receptors: range printed for ACh or nicotine together; for Lower Imax of 1:10 (HS) than 1:1 or 10:1 receptors: α2:β2 1:10 vs 1:1 or 10:1 cRNA; for Higher agonist sensitivity of 1:10 (HS) than 10:1 (LS) receptors: α2:β2 1:10 vs 10:1 cRNA; for Lower Imax of 10:1 than 1:1 receptors / Lower agonist sensitivity of 10:1 than 1:1 receptors: α2:β2 10:1 vs 1:1 cRNA; for Peak response Imax (Mean±SE): at the Imax concentration of the agonist; for pEC50: Potency EC50 (95% CI), −70 mV
human α2(T22I)β2-nAChR [5] = target: T3, human α2(T22I)β2-nAChR; conditions: for Higher agonist sensitivity of 1:10 (HS) than 1:1 or 10:1 receptors: α2(T22I):β2 1:10 vs 1:1 or 10:1 cRNA; for Lower Imax of 10:1 than 1:1 receptors / Lower agonist sensitivity of 10:1 than 1:1 receptors: α2(T22I):β2 10:1 vs 1:1 cRNA; for Peak response Imax (Mean±SE): at the Imax concentration of the agonist
hα2hβ2wt-nAChR = hα2hβ2wt-nAChR (Homo sapiens, UniProt P17787+Q15822); conditions: 316 μM ACh or 100 μM nicotine
hα2hβ2wt-nAChR, sequence (Q15822 27-529): as the sequence (Q15822 27-529) above
hα2hβ2wt-nAChR, sequence (P17787 26-502): as the sequence (P17787 26-502) above

human α2β4-nAChR = human α2β4-nAChR (Homo sapiens, UniProt P30926+Q15822); conditions: for pEC50: Potency EC50 (95% CI), −70 mV; for Peak response Imax (Mean±SE): at the Imax concentration of the agonist
human α2β4-nAChR, sequence (Q15822 27-529): as the sequence (Q15822 27-529) above
human α2β4-nAChR, sequence (P30926 22-498): as the sequence (P30926 22-498) above

human α2(T22I)β4-nAChR [6] = target: T1, human α2(T22I)β4-nAChR; conditions: for pEC50: Potency EC50 (95% CI), −70 mV; for Peak response Imax (Mean±SE): at the Imax concentration of the agonist

inhibition at 1000 µM (human α2(T22I)β4-nAChR [1]): 99% | Effect on ACh or nicotine induced Imax responses (human α2β2-nAChR [2]): completely abolished | Effect on ACh or nicotine induced Imax responses (human α2(T22I)β2-nAChR [3]): completely abolished
SMILES: CNC1(C)C2CCC(C2)C1(C)C (centres unmarked) [Mecamylamine, mecamylamine]

SMILES: CC(=O)OCC[N+](C)(C)C [ACh, acetylcholine]
Peak current (human α2β2-nAChR [4]): 406±89 nA | Higher agonist sensitivity of 1:10 (HS) than 1:1 receptors (human α2β2-nAChR [4]): 2–3 fold | Lower Imax of 1:10 (HS) than 1:1 or 10:1 receptors (human α2β2-nAChR [4]): 47–70% | Higher agonist sensitivity of 1:10 (HS) than 10:1 (LS) receptors (human α2β2-nAChR [4]): 8–18 fold | Lower Imax of 10:1 than 1:1 receptors (human α2β2-nAChR [4]): ~ 43% | Lower agonist sensitivity of 10:1 than 1:1 receptors (human α2β2-nAChR [4]): ~ 5 fold | Hill coefficient nH ± SE (human α2β2-nAChR [4]; α2β2(1:1)): 0.7 ± 0.05 | Peak response Imax (Mean±SE) (human α2β2-nAChR [4]; α2β2(1:1)): 551 ± 62 nA | Hill coefficient nH ± SE (human α2β2-nAChR [4]; α2β2(1:10)): 1 ± 0.08 | Peak response Imax (Mean±SE) (human α2β2-nAChR [4]; α2β2(1:10)): 167 ± 18 nA | Hill coefficient nH ± SE (human α2β2-nAChR [4]; α2β2(10:1)): 0.9 ± 0.08 | Peak response Imax (Mean±SE) (human α2β2-nAChR [4]; α2β2(10:1)): 314 ± 84 nA | Higher agonist sensitivity of 1:10 (HS) than 1:1 or 10:1 receptors (human α2(T22I)β2-nAChR [5]): 4–9 fold | Lower Imax of 10:1 than 1:1 receptors (human α2(T22I)β2-nAChR [5]): ~ 25 fold | Lower agonist sensitivity of 10:1 than 1:1 receptors (human α2(T22I)β2-nAChR [5]): ~ 2 fold | Hill coefficient nH ± SE (human α2(T22I)β2-nAChR [5]; α2(T22I)β2(1:1)): 0.9 ± 0.08 | Peak response Imax (Mean±SE) (human α2(T22I)β2-nAChR [5]; α2(T22I)β2(1:1)): 1326 ± 214 nA | Peak response Imax (Mean±SE) (human α2(T22I)β2-nAChR [5]; α2(T22I)β2(1:10)): 952 ± 128 nA | Hill coefficient nH ± SE (human α2(T22I)β2-nAChR [5]; α2(T22I)β2(10:1)): 0.9 ± 0.3 | Peak response Imax (Mean±SE) (human α2(T22I)β2-nAChR [5]; α2(T22I)β2(10:1)): 54 ± 9 nA | Peak current (hα2hβ2wt-nAChR): 28±6 nA

SMILES: CN1CCC[C@H]1c1cccnc1 [Nicotine, L-nicotine]
pEC50 (human α2β2-nAChR [4]; α2β2(1:1) cRNA ratio): 5.74 | pEC50 (human α2β2-nAChR [4]; α2β2(1:10) cRNA ratio, putative HS): 6.08 | pEC50 (human α2β2-nAChR [4]; α2β2(10:1) cRNA ratio, putative LS): 5.20 | Peak current (human α2β2-nAChR [4]): 291±55 nA | Higher agonist sensitivity of 1:10 (HS) than 1:1 receptors (human α2β2-nAChR [4]): 2–3 fold | Lower Imax of 1:10 (HS) than 1:1 or 10:1 receptors (human α2β2-nAChR [4]): 72–82% | Higher agonist sensitivity of 1:10 (HS) than 10:1 (LS) receptors (human α2β2-nAChR [4]): 8–18 fold | Lower Imax of 10:1 than 1:1 receptors (human α2β2-nAChR [4]): ~ 36% | Lower agonist sensitivity of 10:1 than 1:1 receptors (human α2β2-nAChR [4]): ~ 3.5 fold | Hill coefficient nH ± SE (human α2β2-nAChR [4]; α2β2(1:1)): 0.8 ± 0.08 | Imax Conc. (concentration where Imax is achieved) (human α2β2-nAChR [4]; α2β2(1:1)): 100 µM | Peak response Imax (Mean±SE) (human α2β2-nAChR [4]; α2β2(1:1)): 373 ± 33 nA | Hill coefficient nH ± SE (human α2β2-nAChR [4]; α2β2(1:10)): 1.1 ± 0.13 | Imax Conc. (concentration where Imax is achieved) (human α2β2-nAChR [4]; α2β2(1:10)): 31.6 µM | Peak response Imax (Mean±SE) (human α2β2-nAChR [4]; α2β2(1:10)): 68 ± 7.8 nA | Hill coefficient nH ± SE (human α2β2-nAChR [4]; α2β2(10:1)): 1.2 ± 0.06 | Imax Conc. (concentration where Imax is achieved) (human α2β2-nAChR [4]; α2β2(10:1)): 100 µM | Peak response Imax (Mean±SE) (human α2β2-nAChR [4]; α2β2(10:1)): 239 ± 21 nA | pEC50 (human α2(T22I)β2-nAChR [5]; Potency EC50 (95% CI), α2(T22I)β2(1:1) cRNA ratio, −70 mV): 5.17 | Higher agonist sensitivity of 1:10 (HS) than 1:1 or 10:1 receptors (human α2(T22I)β2-nAChR [5]): 3–5 fold | Lower Imax of 10:1 than 1:1 receptors (human α2(T22I)β2-nAChR [5]): ~ 23 fold | Lower agonist sensitivity of 10:1 than 1:1 receptors (human α2(T22I)β2-nAChR [5]): ~ 2 fold | Hill coefficient nH ± SE (human α2(T22I)β2-nAChR [5]; α2(T22I)β2(1:1)): 1.2 ± 0.08 | Imax Conc. (concentration where Imax is achieved) (human α2(T22I)β2-nAChR [5]; α2(T22I)β2(1:1)): 100 µM | Peak response Imax (Mean±SE) (human α2(T22I)β2-nAChR [5]; α2(T22I)β2(1:1)): 1463 ± 136 nA | Hill coefficient nH ± SE (human α2(T22I)β2-nAChR [5]; α2(T22I)β2(1:10)): 1 ± 0.07 | Imax Conc. (concentration where Imax is achieved) (human α2(T22I)β2-nAChR [5]; α2(T22I)β2(1:10)): 31.6 µM | Peak response Imax (Mean±SE) (human α2(T22I)β2-nAChR [5]; α2(T22I)β2(1:10)): 1004 ± 91 nA | Hill coefficient nH ± SE (human α2(T22I)β2-nAChR [5]; α2(T22I)β2(10:1)): 1.1 ± 0.2 | Imax Conc. (concentration where Imax is achieved) (human α2(T22I)β2-nAChR [5]; α2(T22I)β2(10:1)): 100 µM | Peak response Imax (Mean±SE) (human α2(T22I)β2-nAChR [5]; α2(T22I)β2(10:1)): 62 ± 12 nA | pEC50 (human α2β4-nAChR; α2β4(1:1) cRNA ratio): 5.33 | pEC50 (human α2β4-nAChR; α2β4(1:10) cRNA ratio, putative HS): 5.42 | pEC50 (human α2β4-nAChR; α2β4(10:1) cRNA ratio, putative LS): 4.96 | Hill coefficient nH ± SE (human α2β4-nAChR; α2β4(1:1)): 1.1 ± 0.1 | Imax Conc. (concentration where Imax is achieved) (human α2β4-nAChR; α2β4(1:1)): 100 µM | Peak response Imax (Mean±SE) (human α2β4-nAChR; α2β4(1:1)): 2088 ± 96 nA | Peak response Imax (Mean±SE) (human α2β4-nAChR; α2β4(1:1), listed as nicotine): 2088 nA | Hill coefficient nH ± SE (human α2β4-nAChR; α2β4(1:10)): 1.3 ± 0.08 | Imax Conc. (concentration where Imax is achieved) (human α2β4-nAChR; α2β4(1:10)): 100 µM | Peak response Imax (Mean±SE) (human α2β4-nAChR; α2β4(1:10)): 1814 ± 155 nA | Hill coefficient nH ± SE (human α2β4-nAChR; α2β4(10:1)): 1.6 ± 0.09 | Imax Conc. (concentration where Imax is achieved) (human α2β4-nAChR; α2β4(10:1)): 100 µM | Peak response Imax (Mean±SE) (human α2β4-nAChR; α2β4(10:1)): 1139 ± 93 nA | pEC50 (human α2(T22I)β4-nAChR [6]; α2(T22I)β4(1:1) cRNA ratio): 4.92 | pEC50 (human α2(T22I)β4-nAChR [6]; α2(T22I)β4(1:10) cRNA ratio, putative HS): 5.59 | pEC50 (human α2(T22I)β4-nAChR [6]; α2(T22I)β4(10:1) cRNA ratio, putative LS): 4.85 | Hill coefficient nH ± SE (human α2(T22I)β4-nAChR [6]; α2(T22I)β4(1:1)): 1.8 ± 0.07 | Imax Conc. (concentration where Imax is achieved) (human α2(T22I)β4-nAChR [6]; α2(T22I)β4(1:1)): 100 µM | Peak response Imax (Mean±SE) (human α2(T22I)β4-nAChR [6]; α2(T22I)β4(1:1)): 1527 ± 245 nA | Peak response Imax (Mean±SE) (human α2(T22I)β4-nAChR [6]; α2(T22I)β4(1:1), listed as nicotine): 1527 nA | Hill coefficient nH ± SE (human α2(T22I)β4-nAChR [6]; α2(T22I)β4(1:10)): 1.2 ± 0.04 | Imax Conc. (concentration where Imax is achieved) (human α2(T22I)β4-nAChR [6]; α2(T22I)β4(1:10)): 100 µM | Peak response Imax (Mean±SE) (human α2(T22I)β4-nAChR [6]; α2(T22I)β4(1:10)): 3996 ± 168 nA | Hill coefficient nH ± SE (human α2(T22I)β4-nAChR [6]; α2(T22I)β4(10:1)): 2 ± 0.2 | Imax Conc. (concentration where Imax is achieved) (human α2(T22I)β4-nAChR [6]; α2(T22I)β4(10:1)): 100 µM | Peak response Imax (Mean±SE) (human α2(T22I)β4-nAChR [6]; α2(T22I)β4(10:1)): 402 ± 70 nA | Peak current lower than wild-type α2β4 (human α2(T22I)β4-nAChR [6]; α2(T22I)β4 vs α2β4, 1:1 cRNA (mixture of isoforms)): ~ 30% | Peak current (hα2hβ2wt-nAChR): 24±5 nA
